Source: patent publication US10329305B2, “Amorphous solid form of a BET protein inhibitor” (Incyte Corporation, priority 2015, dated 2019)
Values after ≈ are worked out from the molar mass of the structure shown.

What was measured:
Assay type in all cases: physicochemical
[1] = Glass transition temperature by modulated DSC (MDSC); conditions: ramp rate 2° C./min, 10-150° C.
Description: The glass transition temperature (Tg) was determined to be 105.8° C. by modulated DSC (MDSC) using TA Instruments Differential Scanning calorimetry, Model Q2000 with autosampler. The MDSC instrument conditions were as follows: modulation temperature amplitude: ±1° C.; modulation: 60 second; ramp rate: 2° C./min; temperature range: 10-150° C.; Tzero aluminum sample pan and lid; and nitrogen gas flow at 50 mL/min.

[2] = Stability of amorphous Compound 1-(S) under elevated temperature and humidity (Karl-Fischer water content, HPLC/UV purity, XRPD); conditions: for Solid Form (XRPD) / Purity 220 nm / Purity 254 nm / Water content: open vial; for Purity 220 nm / Purity 254 nm: HPLC/UV; for Water content: Karl-Fischer
Description: Table 1 indicates the conditions/time to which the amorphous form was subjected and provides the measured water content (Karl-Fischer analysis) and purity (by HPLC/UV). The HPLC/UV instrument was Agilent HPLC 1100 with an Agilent Zorbax SB-C18, 3.5 μm, 4.6×150 mm column. The HPLC conditions were as follows: column temperature: 40° C.; mobile phase A (MPA): 0.05% (v/v) trifluoroacetic acid (TFA) in water; mobile phase B (MPB): 0.05% (v/v) TFA in acetonitrile; and flow rate: 1 mL/min.
The gradient conditions were as follows: […]

[3] = Formulation of amorphous Compound 1-(S): solubility in vehicles; conditions: for solubility: aqueous with cosolvent or surfactant or cyclodextrin, thermodynamic from solid
From the text: Amorphous Compound 1-(S) was formulated as described in the table below. Table 2 indicates the target concentration, final pH, solubility, and some observation of the resulting formulations.

glass transition temperature (Tg) [1]: 105.8 °C
Solid Form (XRPD) ([2]; 40° C./75% RH, 0 weeks): Amorphous
Purity 220 nm ([2]; 40° C./75% RH, 0 weeks): 98.22%
Purity 254 nm ([2]; 40° C./75% RH, 0 weeks): 97.10%
Water content ([2]; 40° C./75% RH, 0 weeks): 1.67%
Purity 220 nm ([2]; 40° C./75% RH, 1 week): 98.22%
Purity 254 nm ([2]; 40° C./75% RH, 1 week): 97.10%
Water content ([2]; 40° C./75% RH, 1 week): 3.39%
Solid Form (XRPD) ([2]; 40° C./75% RH, 2 weeks): Amorphous
Purity 220 nm ([2]; 40° C./75% RH, 2 weeks): 98.18%
Purity 254 nm ([2]; 40° C./75% RH, 2 weeks): 97.10%
Water content ([2]; 40° C./75% RH, 2 weeks): 2.64%
Solid Form (XRPD) ([2]; 50° C., 0 weeks): Amorphous
Purity 220 nm ([2]; 50° C., 0 weeks): 98.22%
Purity 254 nm ([2]; 50° C., 0 weeks): 97.10%
Water content ([2]; 50° C., 0 weeks): 1.67%
Purity 220 nm ([2]; 50° C., 1 week): 98.12%
Purity 254 nm ([2]; 50° C., 1 week): 97.11%
Water content ([2]; 50° C., 1 week): 0.69%
Solid Form (XRPD) ([2]; 50° C., 2 weeks): Amorphous
Purity 220 nm ([2]; 50° C., 2 weeks): 98.23%
Purity 254 nm ([2]; 50° C., 2 weeks): 97.11%
Water content ([2]; 50° C., 2 weeks): 0.43%
physical stability ([2]; elevated temperature and humidity): physically stable
Observations ([3]; 0.5% MC in 50 mM citrate, pH 3.0, target concentration 0.5 mg/mL): solution
Observations ([3]; 0.5% MC in 50 mM citrate, pH 3.0, target concentration 2.5 mg/mL): suspension
Observations ([3]; 0.5% MC in water, target concentration 0.5 mg/mL): solution
Observations ([3]; 0.5% MC in water, target concentration 2.5 mg/mL): suspension
Observations ([3]; 10% TPGS in 50 mM citrate, pH 3.0, target concentration 2.5 mg/mL): solution
solubility ([3]; 0.5% MC in 50 mM citrate, pH 3.0, target concentration 0.5 mg/mL, final pH 3.00): > 500 µg/mL
solubility ([3]; 0.5% MC in 50 mM citrate, pH 3.0, target concentration 2.5 mg/mL, final pH 3.03): 1150 µg/mL (≈ 3300 µM)
solubility ([3]; 0.5% MC in water, target concentration 0.5 mg/mL, final pH 6.76): > 500 µg/mL
solubility ([3]; 0.5% MC in water, target concentration 2.5 mg/mL, final pH 7.87): 842 µg/mL (≈ 2420 µM)
solubility ([3]; 10% TPGS in 50 mM citrate, pH 3.0, target concentration 2.5 mg/mL, final pH 3.07): > 2500 µg/mL
SMILES: Cc1noc(C)c1-c1ccc2[nH]c(=O)n3c2c1OC[C@@H]3c1ccccn1 [Amorphous Compound 1-(S), (4S)-7-(3,5-dimethylisoxazol-4-yl)-4-pyridin-2-yl-4,5-dihydroimidazo[1,5,4-de][1,4]benzoxazin-2(1H)-one]
